Laboratory results reported in the supplement of paper PMC11061612.

What was measured:
Test in all cases: combination Emax (second highest fraction inhibited in the dose matrix, 72 h); higher = more inhibition; extreme values may be limits of the assay
[1] = tested on: ALL-PO (B-Lymphoblastic Leukemia)
Procedure, shortened: (§1)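 After 24 hours at 37°C and 5% CO2 in 1536-well plates, cells in DMEM/F12 or RPMI plus 10% FBS received two-drug dose matrices for 72 hours. Viability came from CellTiter-Glo 2.0 luminescence and was scaled as inhibition, anchored at 0 by vehicle wells and at 1 by blank wells. Combination Emax is taken as the second-highest inhibition in the matrix, and Bliss excess as the observed combination effect less EA + EB − EA·EB, with EA and EB the single-agent effects.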

[2] = tested on: BFTC-909 (Kidney Carcinoma)
Procedure, shortened: as §1

BPH-1 (Non-Cancerous) = tested on: BPH-1 (Non-Cancerous)
Procedure, shortened: as §1

CAL-72 (Osteosarcoma) = tested on: CAL-72 (Osteosarcoma)
Procedure, shortened: as §1

[3] = tested on: ESS-1 (Other Solid Carcinomas)
Procedure, shortened: as §1

EW-11 (Ewing's Sarcoma) = tested on: EW-11 (Ewing's Sarcoma)
Procedure, shortened: as §1

[4] = tested on: FTC-133 (Thyroid Gland Carcinoma)
Procedure, shortened: as §1

[5] = tested on: HH (T-Cell Non-Hodgkin's Lymphoma)
Procedure, shortened: as §1

[6] = tested on: HeLa (Cervical Carcinoma)
Procedure, shortened: as §1

[7] = tested on: HuCCT1 (Biliary Tract Carcinoma)
Procedure, shortened: as §1

[8] = tested on: L-428 (Hodgkin's Lymphoma)
Procedure, shortened: as §1

[9] = tested on: LNZTA3WT4 (Low Grade Glioma)
Procedure, shortened: as §1

LOXIMVI (Melanoma) = tested on: LOXIMVI (Melanoma)
Procedure, shortened: as §1

[10] = tested on: LS-123 (Colorectal Carcinoma)
Procedure, shortened: as §1

[11] = tested on: NUGC-4 (Gastric Carcinoma)
Procedure, shortened: as §1

[12] = tested on: OE21 (Esophageal Squamous Cell Carcinoma)
Procedure, shortened: as §1

[13] = tested on: SNU-449 (Hepatocellular Carcinoma)
Procedure, shortened: as §1

[14] = tested on: SW1573 (Lung Adenocarcinoma)
Procedure, shortened: as §1

[15] = tested on: TGBC1TKB (Biliary Tract Carcinoma)
Procedure, shortened: as §1

[16] = tested on: WSU-NHL (B-Cell Non-Hodgkin's Lymphoma)
Procedure, shortened: as §1

Row | SMILES | combination Emax [1] | combination Emax [2] | combination Emax (BPH-1 (Non-Cancerous)) | combination Emax (CAL-72 (Osteosarcoma)) | combination Emax [3] | combination Emax (EW-11 (Ewing's Sarcoma)) | combination Emax [4] | combination Emax [5] | combination Emax [6] | combination Emax [7] | combination Emax [8] | combination Emax [9] | combination Emax (LOXIMVI (Melanoma)) | combination Emax [10] | combination Emax [11] | combination Emax [12] | combination Emax [13] | combination Emax [14] | combination Emax [15] | combination Emax [16]
1 | CC1(C)CCC(CN2CCN(c3ccc(C(=O)NS(=O)(=O)c4ccc(NCC5CCOCC5)c([N+](=O)[O-])c4)c(Oc4cnc5[nH]ccc5c4)c3)CC2)=C(c2ccc(Cl)cc2)C1 [Venetoclax] + CN(C)CCCOc1ccc(-c2ccc3ncc4c(c3c2)n(C2CCOCC2)c(=O)n4C)cn1 [AZD0156] (first compound max 1 µM, 7x7, partner max 1 µM) | 0.516 | 0.144 | 0.254 | 0.687 | 0.93 | 0.69 | 0.167 | 0.18 | 0.188 | 0.231 | 0.176 | 0.4 | 0.588 | 0.205 | 0.166 | 0.162 | 0.243 | 0.201 | 0.244 | 0.811
2 | Cc1c2c(nn1C)CSCc1cc(n(C)n1)CSc1cc(c3ccccc3c1)OCCCc1c(C(=O)O)n(C)c3c-2c(Cl)ccc13 [AZD5991] + C1CN(CCC1(C(=O)N[C@@H](CCO)C2=CC=C(C=C2)Cl)N)C3=NC=NC4=C3C=CN4 [Capivasertib] (first compound max 1 µM, 7x7, partner max 3 µM) | 1 | 0.446 | 0.469 | 0.415 | 0.366 | 0.897 | 0.663 | 0.928 | 0.671 | 0.162 | 0.155 | 0.237 | 0.313 | 0.281 | 0.215 | 0.631 | 0.182 | 0.231 | 0.292 | 0.9
3 | Cc1c2c(nn1C)CSCc1cc(n(C)n1)CSc1cc(c3ccccc3c1)OCCCc1c(C(=O)O)n(C)c3c-2c(Cl)ccc13 [AZD5991] + CCN(CCO)CCCOc1ccc2c(Nc3cc(CC(=O)Nc4cccc(F)c4)[nH]n3)ncnc2c1 [AZD2811] (first compound max 1 µM, 7x7, partner max 1 µM) | 1 | 0.438 | 0.873 | 0.473 | 0.733 | 0.872 | 0.761 | 0.728 | 0.763 | 0.267 | 0.31 | 0.256 | 0.339 | 0.229 | 0.22 | 0.522 | 0.282 | 0.321 | 0.192 | 0.92
4 | CC1(C)CCC(CN2CCN(c3ccc(C(=O)NS(=O)(=O)c4ccc(NCC5CCOCC5)c([N+](=O)[O-])c4)c(Oc4cnc5[nH]ccc5c4)c3)CC2)=C(c2ccc(Cl)cc2)C1 [Venetoclax] + CCN(CCO)CCCOc1ccc2c(Nc3cc(CC(=O)Nc4cccc(F)c4)[nH]n3)ncnc2c1 [AZD2811] (first compound max 1 µM, 7x7, partner max 1 µM) | 1 | 0.215 | 0.416 | 0.673 | 0.977 | 0.517 | 0.495 | 0.18 | 0.279 | 0.217 | 0.296 | 0.487 | 0.21 | 0.162 | 0.166 | 0.159 | 0.239 | 0.286 | 0.208 | 0.782
5 | CCN(CCO)CCCOc1ccc2c(Nc3cc(CC(=O)Nc4cccc(F)c4)[nH]n3)ncnc2c1 [AZD2811] + O=C(c1cc(Cc2n[nH]c(=O)c3ccccc23)ccc1F)N1CCN(C(=O)C2CC2)CC1 [Olaparib] (first compound max 1 µM, 7x7, partner max 10 µM) | 0.975 | 0.221 | 0.566 | 0.322 | 0.63 | 0.564 | 0.223 | 0.0537 | 0.293 | 0.25 | 0.348 | 0.223 | 0.336 | 0.301 | 0.21 | 0.255 | 0.205 | 0.221 | 0.0912 | 0.931
6 | NC1(C(=O)N[C@@H](CCO)c2ccc(Cl)cc2)CCN(c2ncnc3[nH]ccc23)CC1 [Capivasertib] + COc1nnc2ccc(N3CCC(c4ccc(OCCN5CCN(C)C(=O)[C@H]5C)cc4)CC3)nn12 [AZD5153] (first compound max 10 µM, 7x7, partner max 1 µM) | 0.9 | 0.678 | 0.691 | 0.481 | 0.738 | 0.948 | 0.73 | 0.439 | 0.423 | 0.609 | 0.742 | 0.57 | 0.952 | 0.418 | 0.542 | 0.882 | 0.224 | 0.409 | 0.39 | 1
7 | Cc1c2c(nn1C)CSCc1cc(n(C)n1)CSc1cc(c3ccccc3c1)OCCCc1c(C(=O)O)n(C)c3c-2c(Cl)ccc13 [AZD5991] + C=CCn1c(=O)c2cnc(Nc3ccc(N4CCN(C)CC4)cc3)nc2n1-c1cccc(C(C)(C)O)n1 [AZD1775] (first compound max 1 µM, partner max 1 µM) | 1 | 0.944 | 0.525 | 0.782 | 0.988 | 0.863 | 0.956 | 0.77 | 0.841 | 0.759 | 0.82 | 0.823 | 0.624 | 0.66 | 0.47 | 0.719 | 0.302 | 0.44 | 0.303 | 0.954
8 | CCc1c2c(nc3ccc(O)cc13)-c1cc3c(c(=O)n1C2)COC(=O)[C@]3(O)CC [SN-38] + CN(C)CCCOc1ccc(-c2ccc3ncc4c(c3c2)n(C2CCOCC2)c(=O)n4C)cn1 [AZD0156] (first compound max 0.3 µM, 7x7, partner max 1 µM) | 0.985 | 0.899 | 0.94 | 0.774 | 1 | 0.739 | 0.959 | 0.0821 | 0.295 | 0.508 | 0.894 | 0.449 | 0.784 | 0.481 | 0.287 | 0.678 | 0.196 | 0.794 | 0.366 | 1
9 | CC1(C)CCC(CN2CCN(c3ccc(C(=O)NS(=O)(=O)c4ccc(NCC5CCOCC5)c([N+](=O)[O-])c4)c(Oc4cnc5[nH]ccc5c4)c3)CC2)=C(c2ccc(Cl)cc2)C1 [Venetoclax] + C[C@@H]1COCCN1C2=NC(=NC(=C2)C3(CC3)[S@](=N)(=O)C)C4=C5C=CNC5=NC=C4 [AZD6738] (first compound max 1 µM, 7x7, partner max 10 µM) | 1 | 0.853 | 0.332 | 0.902 | 0.979 | 0.781 | 0.779 | 0.352 | 0.563 | 0.664 | 0.779 | 0.789 | 0.723 | 0.587 | 0.534 | 0.828 | 0.26 | 0.351 | 0.46 | 0.983
10 | CC(=O)Nc1cccc(-n2c(=O)n(C3CC3)c(=O)c3c(Nc4ccc(I)cc4F)n(C)c(=O)c(C)c32)c1 [Trametinib] + Cc1nc(-c2cn3c(n2)-c2ccc(-c4cnn(C(C)(C)C(N)=O)c4)cc2OCC3)n(C(C)C)n1 [Taselisib] (first compound max 1 µM, 7x7, partner max 10 µM) | 0.795 | 0.781 | 0.94 | 0.85 | 0.88 | 0.676 | 0.338 | 0.524 | 0.42 | 0.803 | 0.204 | 0.671 | 1 | 0.885 | 0.554 | 0.952 | 0.559 | 0.407 | 0.933 | 0.76
11 | CN(C)CCCOc1ccc(-c2ccc3ncc4c(c3c2)n(C2CCOCC2)c(=O)n4C)cn1 [AZD0156] + C[C@@H]1COCCN1C2=NC(=NC(=C2)C3(CC3)[S@](=N)(=O)C)C4=C5C=CNC5=NC=C4 [AZD6738] (first compound max 1 µM, 7x7, partner max 10 µM) | 0.922 | 0.813 | 0.427 | 0.889 | 0.989 | 0.668 | 0.666 | 0.427 | 0.679 | 0.796 | 0.777 | 0.778 | 0.908 | 0.644 | 0.639 | 0.696 | 0.176 | 0.196 | 0.397 | 0.998
12 | Cc1c2c(nn1C)CSCc1cc(n(C)n1)CSc1cc(c3ccccc3c1)OCCCc1c(C(=O)O)n(C)c3c-2c(Cl)ccc13 [AZD5991] + C[C@@H]1COCCN1C2=NC(=NC(=C2)C3(CC3)[S@](=N)(=O)C)C4=C5C=CNC5=NC=C4 [AZD6738] (first compound max 1 µM, 7x7, partner max 10 µM) | 1 | 0.931 | 0.521 | 0.832 | 0.958 | 0.932 | 0.923 | 0.759 | 0.856 | 0.756 | 0.808 | 0.761 | 0.742 | 0.609 | 0.561 | 0.844 | 0.198 | 0.368 | 0.403 | 0.994
